Reference: patent US20130064815A1, “INDUCING APOPTOSIS IN QUIESCENT CELLS” (THE TRUSTEES OF PRINCETON UNIVERSITY, priority 2011, published 2013)
Where a SMILES comes first, the peptide text is derived from it. The star is where a group is joined. Cbz = O=C(OCc1ccccc1)*

How the values were obtained:
[1] = tested on: MnSOD; experiment: MnSOD expression after MG132 (microarray, Western blot); type: cell-based, human
Description: (§1) Other researchers have reported that there is a correlation between proliferative status and sensitivity to oxidative stress in human fibroblasts (Naderi et al., 2003, “Oxidative stress-induced apoptosis in dividing fibroblasts involves activation of p38 MAP kinase and over-expression of Bax: resistance of quiescent cells to oxidative stress, Apoptosis 8, 91-100, which is incorporated herein by reference as if fully set forth). […] A Western blot analysis was used to monitor the levels of the ROS detoxifying enzymes MnSOD and catalase, an enzyme that converts hydrogen peroxide to water and oxygen. The protein concentrations of MnSOD and catalase were higher in quiescent fibroblasts than in proliferating cells (FIG. 26B), consistent with a previous report (Sarsour et al., 2008, “Manganese superoxide dismutase activity regulates transitions between quiescent and proliferative growth, Aging cell 7, 405-417, which is incorporated herein by reference as if fully set forth). […] It was hypothesized that the higher levels of ROS-detoxifying enzymes in quiescent fibroblasts contributes to the protection of quiescent fibroblasts from proteasome inhibition-induced apoptosis. Intracellular superoxide levels were monitored using dihydroethidium (DHE), an indicator of superoxide anions.

[2] = tested on: LC3-II; experiment: LC3-II immunoblot (autophagy / autophagic flux); type: cell-based, human; settings: MG132 treatment; proliferating, contact-inhibited and serum-starved states
Procedure: The levels of autophagy components—Atg5/Atg12, Atg7, Atg3, and LC3-I and LC3-II—were monitored in proliferating and contact-inhibited fibroblasts using immunoblotting (FIG. 21A). As a positive control for autophagy induction, samples of cells in each cell cycle state were also incubated in Kreb's Ringer Bicarbonate solution (KRB), a protocol that induces autophagy through amino acid starvation and elimination of other nutrients except glucose. Levels of Atg5/Atg12, Atg7, and LC3-II were elevated in all of the amino acid starvation and contact-inhibition states as compared to the proliferating state (FIG. 21A). Atg3 was induced in all quiescent states compared with proliferating states, including amino acid starvation. In order to differentiate whether the high levels of autophagy proteins resulted from a blockade of autophagy degradation or active flux through the pathway, we monitored the levels of LC3-II in proliferating and 7 dCI fibroblasts in the presence of bafilomycin A1 (Baf-A1). Baf-A1 is a vacuolar-type H^+-ATPase inhibitor that prevents autophagosome fusion with the lysosome due to an increase in lysosomal pH. […] This finding is consistent with active autophagic flux in quiescent fibroblasts
In addition to its role in providing amino acids and energy under starvation conditions, autophagy is involved in maintenance of cellular homeostasis and resistance to tumorigenesis through degradation of old or damaged proteins and entire organelles. It was hypothesized that autophagy in contact-inhibited cells could function to degrade old and/or damaged proteins that would otherwise accumulate in the cytoplasm due to lack of cell division as a mechanism for dilution of these proteins. Oxidation of proteins causes the formation of carbonyl groups on amino acids, and carbonylation can disrupt protein function. To monitor the extent of protein oxidation in proliferating and contact-inhibited fibroblasts, the protein carbonyl groups were derivatized using 2,4-dinitrophenylhydrazine (DNP), and monitored using immunoblotting with an antibody that recognizes the covalently added DNP. The levels of oxidized proteins in proliferating and 7 dCI fibroblasts were monitored in cells that were either competent to perform autophagy (control), or were stably expressing an shRNA against the essential autophagy components Atg5 (sh-Atg5) or Atg7 (sh-Atg7), which are known to represent autophagy-defective phenotypes in other model systems. […] In contact-inhibited fibroblasts, in contrast, the levels of oxidized proteins increased 1.5-fold±0.1 in 7 dCI sh-Atg5 fibroblasts as compared to vector control counterparts (p=0.009) (FIG. 22B). […]
To test this hypothesis, the levels of an autophagy-specific form of the LC3 protein, LC3 II, were monitored compared to a housekeeping protein (Klionsky et al., 2008, “Guidelines for the use and interpretation of assays for monitoring autophagy in higher eukaryotes,” Autophagy 4, 151-175, which is incorporated herein by reference as if fully set forth). […]
We observed an increase in the ratio of LC3 II to GAPDH in response to MG132 treatment for cells in proliferating, contact-inhibited and serum-starved states (FIG. 25B). To test whether the high levels of LC3 II in quiescent cells in response to MG132 treatment result from a blockade of autophagy degradation or from active flux through the pathway, LC3 II levels were monitored in proliferating and quiescent fibroblasts treated with MG132 in the presence or absence of bafilomycin A1 (Baf). […]

[3] = tested on: primary human fibroblasts; experiment: caspase 3/7 activity apoptosis assay (ApoTox-Glo) in proliferating and quiescent fibroblasts; type: cell-based; settings: MG132 0 to 10 μM; proliferating and serum-starved cells
Procedure: Referring to FIG. 2A, primary human fibroblasts were tested either in a proliferating state or after being induced into quiescence. Quiescence may be induced by either contact inhibition or serum starvation. Cells were treated with DHEA for four days, with bafilomycin added on the fourth day. Apoptosis was assessed based on the activity of caspase 3/7 for a fluorogenic substrate.
PPP inhibition and apoptosis analysis: Apoptosis was measured based on the levels of caspase 3/7 released into the media using the ApoTox-Glo Triplex Assay according to the manufacturer's instructions (Promega Corp., Madison, Wis.). Cells were plated in triplicate at 10,000 cells per well in white-walled, clear-bottom 96-well plates (Costar, Corning Life Sciences, Lowell, Mass.). For contact inhibition, cells were plated 7 days prior to the start of treatment, for serum starvation cells were plated 4 days prior to treatment and switched to 0.1% serum media for the remaining 3 days, while proliferating cells were plated the day prior to the start of treatment. […] Cells in serum starvation conditions were incubated in 0.1% serum during treatment as well. The apoptosis reagent was added at 100 μl per well and incubated for 1 h prior to reading. Luminescence was read from the top using a Synergy-2 plate reader (Biotek, Winooski, Vt.). Luminescence data were normalized to the vehicle only condition.
Apoptosis induction was assessed by monitoring caspase 3/7 activity using a luminescent caspase substrate. This assay is optimized for high-throughput screening in 96-well plates and allows multiple concentrations and combination of drugs to be tested in triplicate at different time points. […] Therefore, this assay was used to compare proliferating and serum-starved cells only.

[4] = tested on: proliferating and quiescent fibroblasts; experiment: annexin V / PI flow cytometry after proteasome inhibition; type: cell-based, human; settings: for cells with signs of apoptosis: highest dose (10 μM)
Procedure: (§2) To elucidate the responses of proliferating and quiescent fibroblasts to proteasome inhibition, the effects of known proteasome inhibitors on proliferating and quiescent fibroblasts were examined.
(§3) At the highest dose (10 μM), approximately 50% of proliferating cells were apoptotic (FIG. 24A-lower right (Q4), upper right (Q2), and upper left (Q1) quadrants represent early apoptosis, late apoptosis, and very late apoptosis or necrosis, respectively). In comparison, quiescent fibroblasts were largely unaffected by MG132 treatment, showing far lower levels of apoptosis.

[5] = as above; type: cell-based, human; settings: human
Procedure: as §2, §3

[6] = tested on: superoxide; experiment: intracellular superoxide levels with dihydroethidium (DHE); type: cell-based, human; settings: proteasome inhibition
Description: as §1

Structure (SMILES): CC(C)C[C@@H](C=O)NC(=O)[C@H](CC(C)C)NC(=O)[C@H](CC(C)C)NC(=O)OCc1ccccc1 [MG132] (Cbz-Leu-Leu-Leu-aldehyde)
- MnSOD protein levels ([1]; Western blot, proliferating and quiescent fibroblasts): further elevated MnSOD levels
- MnSOD transcript expression ([1]; microarray, proliferating and quiescent cells): induced MnSOD expression
- ratio of LC3 II to GAPDH [2]: increase
- caspase 3/7 activity [3]: dose-dependent increases
- viability, quiescent vs proliferating fibroblasts ([4]; 48 hours of treatment): significantly higher number of quiescent fibroblasts maintained viability
- cells with signs of apoptosis ([4]; contact-inhibited fibroblasts, 24 hours): approximately 14%
- apoptotic cells (annexin V and PI) ([4]; proliferating cells, 10 μM, 24 hours): approximately 50%
- proliferating cell viability (fraction PI negative) ([4]; proliferating cells, 24 hours): statistically significant, dose-dependent decrease
- quiescent cell viability ([4]; quiescent cells, 24 hours, up to 10 μM MG132, 1 μM epoxomicin): maintained high viability
- cells with signs of apoptosis ([4]; serum-starved fibroblasts, 24 hours): ~10%
- cytotoxicity at 24 h, 10 μM [5]: ~50%
- superoxide levels ([6]; proliferating cells): significant induction of superoxide levels
- superoxide levels ([6]; quiescent cells): maintained basal superoxide levels
